Reference: patent US8349553B2, “Jasmonate based assays for identifying compounds that selectively inhibit mitochondrial bound hexokinases” (Ramot at Tel Aviv University Ltd., priority 2007, dated 2013)

Key:
[1] = system: mitochondria-bound hexokinase (mitochondrial fraction of Molt-4 cells); experiment: Hexokinase detachment assay, mitochondrial fraction of Molt-4 cells; type: biochemical, human; details: Molt-4 mitochondrial fraction; 30 minutes at 37° C.
Description: (§1) Mitochondrial fraction was prepared by mechanical lysis and differential centrifugation. All stages were performed on ice. Cells or extracted tissues were washed with PBS and disrupted by homogenization in extraction buffer (Sucrose 250 mM, HEPES-NaOH 10 mM, pH 7.2) freshly supplemented with 0.1 mM EDTA and Protease Inhibitors cocktail (Sigma). For each gram of cells or tissue, 4 volumes of extraction buffer were applied. The homogenate volume was doubled with the extraction buffer, and tissue and cell debris as well as nuclei were pelleted by centrifugation of 1,000 g for 10 minutes. The supernatant was further spun at 13,000 g for 10 minutes twice. Endoplasmic reticulum layer was removed. The pellet, designated as the mitochondrial fraction, was suspended in the appropriate buffer, depending on the assay for which the mitochondrial fraction was prepared. Mitochondrial fractions were used immediately or stored at −196° C. […] Activity of hexokinase in the supernatant (i.e., activity of the detached hexokinase) was determined spectrophotometrically at 340 nm. […] Mitochondrial fractions isolated from different cancer cells, namely Molt-4 cells, BCL-1 leukemic cells and B16 melanoma tumors were incubated for 30 minutes at 37° C., and the activity of unbound hexokinase was measured and compared to the activity of spontaneously (control) detached hexokinase. […]

[2] = system: mitochondria-bound hexokinase (mitochondrial fraction of B16 melanoma tumors); experiment: Hexokinase detachment assay, mitochondrial fraction of B16 melanoma tumors; type: biochemical, murine; details: B16 tumor mitochondrial fraction; 30 minutes at 37° C.
Description: as §1

Molt-4 cells = experiment: Cellular ATP levels (CellTiter-Glo), Molt-4; type: cell-based, human; details: 60 minutes of exposure, various concentrations
Description: The CellTiter-Glo™ Luminescent Cell Viability Assay (Promega, Madison, Wis., U.S.A.) was employed (Fingrut, 2005). Upon completion of a given experiment, plates were equilibrated to room temperature. CellTiter-Glo™ reagent containing luciferin and luciferase was added to each well and the plates were mixed on an orbital shaker for 2 minutes to induce cell lysis. In the presence of ATP, Mg^2+ and molecular oxygen, mono-oxidation of luciferin is catalyzed by luciferase, generating a luminescence signal. Cells were then incubated for 10 minutes at room temperature to stabilize the luminescence signal. Luminescence was recorded using Kodak digital science—Image station 440 CD. Luminescence is directly proportional to ATP concentration. ATP depletion (% of control) was calculated in the following way: {(luminescence of control cells−luminescence of drug-treated cells)/luminescence of control cells}×100. In order to test the correlation between cellular ATP levels and the release of hexokinase from mitochondrial fraction different cancer cells, namely Molt-4 cells, BCL-1 leukemic cells and B16 melanoma tumors were exposed to various methyl jasmonate concentrations. […] CT26 and Molt-4 cells were then seeded in 24 well plates. CT26 cells were allowed to adhere over night. Cells were exposed to methyl jasmonate (MJ; 3 mM) for 1 hour. Trypan blue exclusion test was performed and cells were counted.

[3] = system: rabbit immunoglobulin G (Rb IgG); experiment: Surface plasmon resonance, irrelevant protein control; type: binding; details: 6 mM and 3 mM
Description: SPR using ProteOn-EP5 (Bio-Rad, Hercules, Calif., USA) system has been applied to study the direct interaction of methyl jasmonate with hexokinase. This system allowed measuring ligand-analyte interactions in a 6×6 format in real time. Purified rat brain HKI and rabbit immunoglobulin G (Rb IgG; ligands) were diluted in 10 mM Na acetate pH 4 and 4.5, respectively, and coupled to a GLM sensor surface activated with 37.5 mg/ml N-Ethyl-N′-(3′ dimethylaminopropyl) carbodiimide hydrochloride and 7.5 mg/ml N-hydroxysuccinimide. HKI and IgG were added to saturate the chip at 100 μg/ml. Remaining reactive groups on the chip were then inactivated with 1 M ethanolamine pH 8.5. […] Methyl jasmonate and jasmonic acid (analytes) were diluted in running buffer (PBS X 1 with 0.005% Tween and 5% DMSO) and injected onto the sensor chip at varying concentrations. All experiments were performed at flow rate of 50 μl/min, at 25° C.

[4] = system: mitochondrial fraction of mouse liver; experiment: Mitochondrial swelling assay, mouse liver; type: biochemical; details: 1 mM
Description: Freshly isolated mitochondrial fraction was washed with extraction buffer to remove EDTA and resuspended in swelling buffer (Mannitol 220 mM, Sucrose 70 mM, Tris, pH 7.2, 150 mM, KH2PO4, pH 7.2, 0.2 mM; 0.2 mg in 100 μL) freshly supplemented with potassium succinate, pH 7.2, 5 mM. Every component was sodium-free. Optical density was monitored at the wave length of 540 nm for 2-5 minutes before the addition of the examined reagents, e.g. methyl jasmonate, and for additional 20 minutes afterwards.
In order to examine the consistency of the relationship between the ability of methyl jasmonate to detach bound hexokinase and mitochondrial damage, methyl jasmonate was tested in mouse brain in comparison to mouse liver. The comparison was performed due to known differences of mitochondrial hexokinase content between mouse brain vs. its liver. It is well established in the art that brain mitochondrial fraction is rich in bound hexokinase, while liver mitochondrial fraction is essentially devoid of it (Wilson, 1995). […] Mitochondrial fractions were incubated for either 10, 30 or 60 minutes at 37° C. The activity of unbound hexokinase was measured and compared to the activity of spontaneously (control) detached hexokinase. Consequently, the ability of methyl jasmonate to induce swelling in mitochondrial fraction isolated from mouse brain and liver was tested.

hexokinase = experiment: Hexokinase activity, agent added directly to the coupled assay mixture; type: biochemical; details: coupled pyruvate kinase/lactate dehydrogenase assay, 340 nm
lymphomas = details: mice; cited from earlier work

CC/C=C\CC1C(=O)CCC1CC(=O)OC (stereo not shown) [methyl jasmonate]
detachment of hexokinase (activity of unbound hexokinase compared to control) [1]: detached hexokinase from mitochondrial fraction isolated from the three different cancer cells
detachment of hexokinase (activity of unbound hexokinase compared to control) [2]: detached hexokinase from mitochondrial fraction isolated from the three different cancer cells
cellular ATP level (Molt-4 cells): significant and dose-dependent decrease of cellular ATP
binding to immobilized Rb IgG (SPR) [3]: binds to hexokinase but not to Rb IgG
mitochondrial swelling (optical density at 540 nm) [4]: not in liver
influence on hexokinase activity when added directly to the assay mixture (hexokinase): neither methyl jasmonate nor jasmonic acid added directly to the assay mixture, influence hexokinase activity
prevention of the development of lymphomas (lymphomas): effective in preventing the development of lymphomas in mice
